From patent publication US12162878B2 (HINOVA PHARMACEUTICALS INC., priority 2018, dated 2024)

What follows are molecules tested on CWR22RV1 cells (assay: Inhibition of proliferation of CWR22RV1 cells (CCK-8)). Conditions: Homo sapiens, CWR22Rv1, 144 h, 6 days.
Format: cell-based, human
Procedure: • CWR22RV1 cell line (Cell Bank of Chinese Academy of Sciences, TCHu100) • FBS (Gibco, Cat. No. 10099-141) • 0.01M PBS (Biosharp, Cat. No. 162262) • RIPM1640 (Hyclone, Cat. No. 308090.01) • Penicillin-Streptomycin (Hyclone, Cat. No. SV30010) • Cell counting kit-8 (Signalway Antibody, Cat. No. CP002) • DMSO (Sigma, Cat. No. D5879) • Centrifuge Tube, 15 ml (Excell Bio, Cat. No. CS015-0001) • Cell Culture Dish, (Excell Bio, Cat. No. CS016-0128) • 96-well cell culture cluster (Corning, Cat. No. 3599) • 2. Experimental method (1) Preparation of Buffer
1) CWR22RV1 cells were subcultured in cell culture medium, and the cells in good growth condition were seeded in a 96-well plate, 80 μL for each well, thus the number of cells per well was 1500, then the plate was cultured overnight in a 37° C., 5% CO2 cell incubator.
2) The drug was prepared with dimethyl sulfoxide (DMSO) as a 30 mM stock solution. Prior to use, the solution was diluted 3 times with DMSO, and then diluted with a 3-fold gradient to obtain 9 concentration gradients. Then, each concentration of the compound was further diluted 200 times with the culture solution (to ensure that DMSO concentration in the culture system was 0.1%), 2 repeat wells for each concentration. The diluted solution of each compound (20 μL) was added to the cell culture well (with a final concentration of 10 μM, 3.3 μM, 1.1 μM . . . ), and shaken gently for mixing. In addition, three negative control wells containing only cells and three blank control wells containing only culture medium (20 μL DMSO diluted 200 times with culture medium being added to six wells) were included.
(1) After culturing for 6 days, 10 μL CCK-8 was added to each well and cultured for additional 2.5 h in a 37° C., 5% CO2 cell incubator.
(2) The absorbance (OD value) at 450 nm was measured with a multifunctional microplate reader.
(3) The data was analyzed by the Dose-response-inhibition equation in the software GraphPad Prism6, and the IC50 value was obtained.

Row | Structure (SMILES) | IC50 [nM]
1 | CCS(=O)(=O)Nc1ccc(N2CCC3(CC3)C2)c(-c2cn(C)c(=O)c3[nH]ccc23)c1 [Compound 7, N-(3-(6-methyl-7-oxo-6,7-dihydro-1H-pyrrolo[2,3-c]pyridin-4-yl)-4-(5-aza-spiro[2.4]heptan-5-yl)phenyl)ethylsulfonamide] | 18
2 | CCS(=O)(=O)Nc1ccc(N2CCC3(CC2)CC3)c(-c2cn(C)c(=O)c3[nH]ccc23)c1 [Compound 8] | 6
3 | CCS(=O)(=O)Nc1ccc(N2CCCC3(CC3)C2)c(-c2cn(C)c(=O)c3[nH]ccc23)c1 [Compound 9, N-(3-(6-methyl-7-oxo-6,7-dihydro-1H-pyrrolo[2,3-c]pyridin-4-yl)-4-(5-aza-spiro[2.5]octan-5-yl)phenyl)ethylsulfonamide] | 30
4 | Cn1cc(-c2cc(NS(=O)(=O)C3CC3)ccc2N2CC3(CCC3)C2)c2cc[nH]c2c1=O [Compound 10, N-(3-(6-methyl-7-oxo-6,7-dihydro-1H-pyrrolo[2,3-c]pyridin-4-yl)-4-(2-aza-spiro[3.3]heptan-2-yl)phenyl)cyclopropanesulfonamide] | 29
5 | Cn1cc(-c2cc(NS(C)(=O)=O)ccc2N2CC3(CCC3)C2)c2cc[nH]c2c1=O [Compound 11, N-(3-(6-methyl-7-oxo-6,7-dihydro-1H-pyrrolo[2,3-c]pyridin-4-yl)-4-(2-aza-spiro[3.3]heptan-2-yl)phenyl)methanesulfonamide] | 30
6 | Cn1cc(-c2cc(NS(=O)(=O)C3COC3)ccc2N2CC3(CCC3)C2)c2cc[nH]c2c1=O [Compound 12, N-(3-(6-methyl-7-oxo-6,7-dihydro-1H-pyrrolo[2,3-c]pyridin-4-yl)-4-(2-aza-spiro[3.3]heptan-2-yl)phenyl)oxetane-3-sulfonamide] | 89
7 | CCCCS(=O)(=O)Nc1ccc(N2CC3(CCC3)C2)c(-c2cn(C)c(=O)c3[nH]ccc23)c1 [Compound 13, N-(3-(6-methyl-7-oxo-6,7-dihydro-1H-pyrrolo[2,3-c]pyridin-4-yl)-4-(2-aza-spiro[3.3]heptan-2-yl)phenyl)butane-1-sulfonamide] | 79
8 | CCS(=O)(=O)Nc1ccc(N2CC3(CCC3)C2)c(-c2cn(C)c(=O)c3[nH]ccc23)c1 [Compound 14, N-(3-(6-methyl-7-oxo-6,7-dihydro-1H-pyrrolo[2,3-c]pyridin-4-yl)-4-(2-aza-spiro[3.3]heptan-2-yl)phenyl)ethanesulfonamide] | 31
9 | Cn1cc(-c2cc(NS(C)(=O)=O)ccc2N2CC3(COC3)C2)c2cc[nH]c2c1=O [Compound 15, N-(3-(6-methyl-7-oxo-6,7-dihydro-1H-pyrrolo[2,3-c]pyridin-4-yl)-4-(2-oxa-6-aza-spiro[3.3]heptan-6-yl)phenyl)methanesulfonamide] | 650
10 | CCS(=O)(=O)Nc1ccc(N2CC3(COC3)C2)c(-c2cn(C)c(=O)c3[nH]ccc23)c1 [Compound 16, N-(3-(6-methyl-7-oxo-6,7-dihydro-1H-pyrrolo[2,3-c]pyridin-4-yl)-4-(2-oxa-6-aza-spiro[3.3]heptan-6-yl)phenyl)ethanesulfonamide] | 380
11 | CCCCS(=O)(=O)Nc1ccc(N2CC3(COC3)C2)c(-c2cn(C)c(=O)c3[nH]ccc23)c1 [Compound 17, N-(3-(6-methyl-7-oxo-6,7-dihydro-1H-pyrrolo[2,3-c]pyridin-4-yl)-4-(2-oxa-6-aza-spiro[3.3]heptan-6-yl)phenyl)butan-1-sulfonamide] | 440
12 | Cn1cc(-c2cc(NS(=O)(=O)C3CC3)ccc2N2CC3(COC3)C2)c2cc[nH]c2c1=O [Compound 18, N-(3-(6-methyl-7-oxo-6,7-dihydro-1H-pyrrolo[2,3-c]pyridin-4-yl)-4-(2-oxa-6-aza-spiro[3.3]heptan-6-yl)phenyl)cyclopropanesulfonamide] | 520
13 | CCOC(=O)C1CC12CCN(c1ccc(NS(=O)(=O)CC)cc1-c1cn(C)c(=O)c3[nH]ccc13)CC2 (centres unmarked) [Compound 19] | 410
14 | CCS(=O)(=O)Nc1ccc(N2CCC3(CC2)CC3C(=O)O)c(-c2cn(C)c(=O)c3[nH]ccc23)c1 (centres unmarked) [Compound 20, 6-(4-(ethylsulfonamide)-2-(6-methyl-7-oxo-6,7-dihydro-1H-pyrrolo[2,3-c]pyridin-4-yl)phenyl)-6-aza-spiro[2.5]octan-1-carboxylic acid] | 550
15 | Cn1cc(-c2cc(S(C)(=O)=O)ccc2N2CCC3(CC3)C2)c2cc[nH]c2c1=O [Compound 24, 6-methyl-4-(5-(methylsulfonyl)-2-(5-aza-spiro[2.4]heptan-5-yl)phenyl)-1H-pyrrolo[2,3-c]pyridin-7(6H)-one] | 17
16 | CCS(=O)(=O)c1ccc(N2CCC3(CC3)C2)c(-c2cn(C)c(=O)c3[nH]ccc23)c1 [Compound 25, 4-(5(ethylsulfonyl)-2-(5-aza-spiro[2.4]heptan-5-yl)phenyl)-6-methyl-1H-pyrrolo[2,3-c]pyridin-7(6H)-one] | 26
17 | Cn1cc(-c2cc(S(C)(=O)=O)ccc2N2CCC3(CC2)CC3)c2cc[nH]c2c1=O [Compound 26, 6-methyl-4-(5(methylsulfonyl)-2-(6-aza-spiro[2.5]octan-6-yl)phenyl)-1H-pyrrolo[2,3-c]pyridin-7(6H)-one] | 6
18 | Cn1cc(-c2cc(S(C)(=O)=O)ccc2N2CCCC3(CC3)C2)c2cc[nH]c2c1=O [Compound 27, 6-methyl-4-(5(methylsulfonyl)-2-(5-aza-spiro[2.5]octan-5-yl)phenyl)-1H-pyrrolo[2,3-c]pyridin-7(6H)-one] | 31
19 | Cn1cc(-c2cc(S(=O)(=O)C3CC3)ccc2N2CCCC3(CC3)C2)c2cc[nH]c2c1=O [Compound 28, 4-(5-(cyclopropylsulfonyl)-2-(5-aza-spiro[2.5]octan-5-yl)phenyl)-6-methyl-1H-pyrrolo[2,3-c]pyridin-7(6H)-one] | 36
20 | Cn1cc(-c2cc(S(=O)(=O)C3CC3)ccc2N2CC3(CCC3)C2)c2cc[nH]c2c1=O [Compound 29, 4-(5-(cyclopropylsulfonyl)-2-(2-aza-spiro[3.3]heptan-2-yl)phenyl)-6-methyl-1H-pyrrolo[2,3-c]pyridin-7(6H)-one] | 45
21 | Cn1cc(-c2cc(S(C)(=O)=O)ccc2N2CC3(CCC3)C2)c2cc[nH]c2c1=O [Compound 30, 6-methyl-4-(5-(methylsulfonyl)-2-(2-aza-spiro[3.3]heptan-2-yl)phenyl)-1H-pyrrolo[2,3-c]pyridin-7(6H)-one] | 38
22 | Cn1cc(-c2cc(S(=O)(=O)C3COC3)ccc2N2CC3(CCC3)C2)c2cc[nH]c2c1=O [Compound 31, 6-methyl-4-(5-(oxetane-3-ylsulfonyl)-2-(2-aza-spiro[3.3]heptan-2-yl)phenyl)-1H-pyrrolo[2,3-c]pyridin-7(6H)-one] | 50
23 | CCCCS(=O)(=O)c1ccc(N2CC3(CCC3)C2)c(-c2cn(C)c(=O)c3[nH]ccc23)c1 [Compound 32] | 65
24 | CCS(=O)(=O)c1ccc(N2CC3(CCC3)C2)c(-c2cn(C)c(=O)c3[nH]ccc23)c1 [Compound 33, 4-(5-(ethylsulfonyl)-2-(2-aza-spiro[3.3]heptan-2-yl)phenyl)-6-methyl-1H-pyrrolo[2,3-c]pyridin-7(6H)-one] | 45
25 | Cn1cc(-c2cc(S(C)(=O)=O)ccc2N2CC3(COC3)C2)c2cc[nH]c2c1=O [Compound 34, 6-methyl-4-(5-(methylsulfonyl)-2-(2-oxa-6-aza-spiro[3.3]heptan-6-yl)phenyl)-1H-pyrrolo[2,3-c]pyridin-7(6H)-one] | 380
26 | CCS(=O)(=O)c1ccc(N2CC3(COC3)C2)c(-c2cn(C)c(=O)c3[nH]ccc23)c1 [Compound 35, 4-(5-(ethylsulfonyl)-2-(2-oxa-6-aza-spiro[3.3]heptan-6-yl)phenyl)-6-methyl-1H-pyrrolo[2,3-c]pyridin-7(6H)-one] | 440
27 | CCCCS(=O)(=O)c1ccc(N2CC3(COC3)C2)c(-c2cn(C)c(=O)c3[nH]ccc23)c1 [Compound 36, 4-(5-(butylsulfonyl)-2-(2-oxa-6-aza-spiro[3.3]heptan-6-yl)phenyl)-6-methyl-1H-pyrrolo[2,3-c]pyridin-7(6H)-one] | 560
28 | Cn1cc(-c2cc(S(=O)(=O)C3CC3)ccc2N2CC3(COC3)C2)c2cc[nH]c2c1=O [Compound 37, 4-(5-(cyclopropylsulfonyl)-2-(2-oxa-6-aza-spiro[3.3]heptan-6-yl)phenyl)-6-methyl-1H-pyrrolo[2,3-c]pyridin-7(6H)-one] | 490
29 | CCOC(=O)C1CC12CCN(c1ccc(S(C)(=O)=O)cc1-c1cn(C)c(=O)c3[nH]ccc13)CC2 (centres unmarked) [Compound 38, ethyl 6-(2-(6-methyl-7-oxo-6,7-dihydro-1H-pyrrolo[2,3-c]pyridin-4-yl)-4-(methylsulfonyl)phenyl)-6-azaspiro[2.5]octane-1-carboxylate] | 410
